Reference: US20250345458A1, “COMPLEXING AGENT SALT FORMULATIONS OF PHARMACEUTICAL COMPOUNDS AT LOW STOICHIOMETRIC RATIOS” (Bexson Biomedical, Inc., priority 2022, published 2025)
“And” between values parts separate entries of the source, which are not always exact repeats. Equal entries are not always repeated. Marks after values point to notes of the source that are not given here.

Assays:
[1] = pH of API formulations (pH meter); assay type: physicochemical; settings: for final pH: after 2M NaOH
[2] = Osmolality of API formulations (micro osmometer, triplicate); assay type: physicochemical
Method: Osmolality readings were obtained on an Advanced Instruments Advanced™ Micro Osmometer Model 3300 (Advanced Instruments, Inc. Norwood, MA, USA). Saline solutions (0.9% and 3%) were run as positive controls. Each sample was calculated as the mean from back-to-back triplicate measurements. When replicate batches were measured, data was reported as mean±SEM.
The procedure was performed on a 2 mL scale. […] Benzethonium chloride (20 μL of a 1% solution, 0.01% final concentration) was added via micropipette. The pH was adjusted to ˜7.00 with 2M sodium hydroxide, or either 1M or 2M HCl in some cases, and then the mixture was transferred to a 2 mL volumetric flask to be diluted with HPLC grade water. […]
Method 1: In a 5 mL borosilicate glass test tube which contained a Teflon-coated magnetic stir bar, Captisol®-Na+ ([…], H+ equivalents, moisture corrected) was dissolved in HPLC grade water (1.6-1.7 mL), API salt (HCl in most cases) (70 mg/mL FB equivalents) was added and the mixture was stirred until a homogenous transparent solution formed. Benzethonium chloride (20 μL of a 1% solution, giving a 0.01% final concentration) was added via micropipette. The pH was adjusted to ˜7.00 with 1M or 2M sodium hydroxide, or either 1M or 2M HCl in some cases, and then the mixture was transferred to a 2 mL volumetric flask to be diluted with HPLC grade water. […]
Benzethonium chloride (20 μL of a 1% solution, giving a 0.01% final concentration) was added via micropipette. The pH was adjusted to ˜7.00 with 1M or 2M sodium hydroxide, or either 1M or 2M HCl in some cases, and then the mixture transferred to a 2 mL volumetric flask to be diluted with HPLC grade water. […]
The solution was transferred to a 2 mL volumetric flask and diluted to the target volume with HPLC grade water. […]

[3] = in water, cited from earlier work; for Reported Freebase Solubility: vendor or literature value
[4] = literature value; cited from earlier work
[5] = API-CapAcid salts prepared in ethanol, then 70 mg of solid added to 1 mL water (visual); assay type: physicochemical; settings: for pH of the ethanol solution prior to titration: API FB 100 mg + CapAcid 1 molar equivalent (H^+) in 10 mL 200 proof ethanol; for dissolution of 70 mg of the ethanol-prepared API-CapAcid solid in 1 mL water: visual, vortexed
Method: The resulting solid API-CapAcid salts were then obtained as solids by evaporation of the ethanol, followed by lyophilization.
In a scintillation vial, a solution of API FB (100 mg) and CapAcid (1 molar equivalent, moisture corrected) was prepared by dissolving Cap Acid in 200 proof ethanol (5 mL) and then adding the freebase API. […] Whether or not the freebase dissolved after the second addition of ethanol, the initial pH, prior to titration, was recorded. The vial was then wrapped in foil and left uncovered in the hood to allow the ethanol to evaporate. After the ethanol fully evaporated, a small amount of HPLC grade water (3-5 mL) was added to each to see if the product would dissolve or become a suspension in the water. The solution was then lyophilized to remove the water. The product was ground with a stir rod and 70±0.1 mg was added to 1 mL of water to see if it would dissolve.

[6] = Dissolution of API freebase in aqueous CapAcid / Captisol solutions at defined API:CapAcid ratios, visual inspection and NaOH titration
[7] = Osmolality of API formulations (micro osmometer, triplicate); assay type: physicochemical; settings: API FB with Captisol® Sodium, 1 molar equivalent relative to the cyclodextrin, after 48 hours
[8] = Visual dissolution / precipitation of API free base-CapAcid formulations at stated API:CapAcid ratios; assay type: physicochemical
[9] = 70 mg/mL API FB, 1.1 equivalents CapAcid, before NaOH/HCl
[10] = 70 mg/mL API salt (FB equivalent), 1.1 equivalents Captisol®-Na^+, before NaOH
[11] = API Salt (70 mg/mL API Salt in FB equivalent) in water
[12] = CapAcid-API Freebase Formulation (70 mg/mL API FB, 1.1 molar equivalent CapAcid), final pH after titration and dilution
[13] = Captisol®-Na^+ formulation, 70 mg/mL API Salt in FB equivalent, 1.1 molar equivalent Captisol®-Na^+, final pH
[14] = API FB CapAcid formulation, 70 mg/mL API FB, 1.1 equivalents CapAcid (H^+ equivalents), after titration
[15] = API salt Captisol®-Na^+ formulation, 70 mg/mL FB equivalent, 1.1 equivalents Captisol®-Na^+
[16] = CapAcid-API Freebase Formulation (70 mg/mL API FB, 1.1 molar equivalent CapAcid), after pH titration with NaOH or HCl
[17] = Captisol®-Na^+ formulation, 70 mg/mL API Salt in FB equivalent, 1.1 molar equivalent Captisol®-Na^+
[18] = 70 mg/mL API FB, 1 equivalent 6M HCl, 1.1 equivalents Captisol®-Na^+, before NaOH/HCl
[19] = 70 mg/mL API FB and 1 equivalent of 6M HCl in water
[20] = 70 mg/mL API FB, 1 equivalent of 6M HCl, 1.1 equivalents Captisol®-Na^+
[21] = *70 mg/mL API FB + molar equivalent of 6M HCl in water
[22] = Captisol®-Na^+ formulation, *70 mg/mL API FB + 6M HCl, 1.1 molar equivalent Captisol®-Na^+
[23] = API salt 70 mg/mL (FB equivalents) in water
[24] = 1:1 ratio of API to CapAcid (relative to the cyclodextrin), water
[25] = 2:1 ratio of API to CapAcid (relative to the cyclodextrin), water

NC12CC3CC(CC(C3)C1)C2 [1-Amantadine]
pH of the solution prior to titration [1, 9]: 1.43
pH of the solution prior to titration [1, 10]: 3.93
pH [1, 11]: 5.67
pH [1, 12]: 6.97
pH [1, 13]: 6.99
Osmolality [2, 14]: 411.6 mOsmol/kg
Osmolality [2, 11]: 832 mOsm/kg
Osmolality [2, 15]: 1,446.7 mOsmol/kg
Osmolality [2, 16]: 411.6 mOsm/kg
Osmolality [2, 17]: 1,446.7 mOsm/kg

NC1C2CC3CC(C2)CC1C3 (stereo not drawn) [2-Amantadine]
pH of the solution prior to titration [1, 9]: 1.29
pH of the solution prior to titration [1, 10]: 5.63
pH [1, 11]: 6.94
pH [1, 12]: 7.06
pH [1, 13]: 7.01
Osmolality [2, 14]: 435.7 mOsmol/kg
Osmolality [2, 11]: 826.7 mOsm/kg
Osmolality [2, 15]: 1,492.7 mOsmol/kg
Osmolality [2, 16]: 435.7 mOsm/kg
Osmolality [2, 17]: 1492.7 mOsm/kg

Nc1ccncc1N [Amifampridine, Pyridine-3,4-diamine]
pH of the solution prior to titration [1, 18]: 9.27
pH of the solution prior to titration [1, 9]: 9.19
Osmolality [2, 19]: 740.3 mOsmol/kg
Osmolality [2, 20]: 1023.3 mOsmol/kg
Osmolality [2, 21]: 740.3*^ mOsm/kg
Osmolality [2, 14]: 532.7 mOsmol/kg
Osmolality [2, 16]: 532.7** mOsm/kg
Osmolality [2, 22]: 1,023.3* mOsm/kg
Reported Freebase Solubility [3]: 7000 µg/mL

NCC[C@H](O)C(=O)N[C@@H]1C[C@H](N)[C@@H](O[C@H]2O[C@H](CN)[C@@H](O)[C@H](O)[C@H]2O)[C@H](O)[C@H]1O[C@H]1O[C@H](CO)[C@@H](O)[C@H](N)[C@H]1O [Amikacin]
pH of the solution prior to titration [1, 18]: 1.28
pH of the solution prior to titration [1, 9]: 1.13 and 1.25
Osmolality [2, 19]: 287 mOsmol/kg
Osmolality [2, 20]: 504.3 mOsmol/kg
Osmolality [2, 21]: 287* mOsm/kg
Osmolality [2, 14]: 268 mOsmol/kg and 252.2 mOsmol/kg
Osmolality [2, 16]: 1: 268 mOsm/kg and 2: 252.3 mOsm/kg
Osmolality [2, 22]: 504.3* mOsm/kg
pKa [4]: 8.1^14

COc1ccccc1OCCNCC(O)COc1cccc2[nH]c3ccccc3c12 (stereo not drawn) [Carvedilol]
pH of the ethanol solution prior to titration [5]: 0.82
dissolution of 70 mg of the ethanol-prepared API-CapAcid solid in 1 mL water ([5]; Method 2 solid): insoluble solution
dissolution of 70 mg of the ethanol-prepared API-CapAcid solid in 1 mL water [5]: insoluble solution

CC[C@H](C)C[C@H](C)CCCCCCCCC(=O)N[C@H]1C[C@@H](O)[C@@H](NCCN)NC(=O)[C@@H]2[C@@H](O)CCN2C(=O)[C@H]([C@H](O)CCN)NC(=O)[C@H]([C@H](O)[C@@H](O)c2ccc(O)cc2)NC(=O)[C@@H]2C[C@@H](O)CN2C(=O)[C@H]([C@@H](C)O)NC1=O [Caspofungin]
pH of the solution prior to titration [1, 9]: 7.78
pH of the solution prior to titration [1, 10]: 6.13
pH [1, 11]: 5.86
pH [1, 13]: 7.04
Osmolality [2, 14]: 59 mOsmol/kg
Osmolality [2, 11]: 94 mOsm/kg
Osmolality [2, 23]: 94 mOsmol/kg
Osmolality [2, 15]: 209.3 mOsmol/kg
Osmolality [2, 16]: 59** mOsm/kg
Osmolality [2, 17]: 209.3 mOsm/kg

COc1c(OCCCN2CCOCC2)ccc2c1N=C(NC(=O)c1cnc(N)nc1)N1CCN=C21 [Copanlisib]
pH of the solution before titration ([1]; 1:1 ratio of API to CapAcid): 0.76
final pH ([1]; 1:1 ratio of API to CapAcid): 6.13
pH of the solution before titration ([1]; 2:1 ratio of API to CapAcid): 2.10
pH of the ethanol solution prior to titration [5]: 0.66
dissolution of 70 mg of the ethanol-prepared API-CapAcid solid in 1 mL water [5]: became cloudy with a brown precipitate at the bottom
Reported Freebase Solubility [3]: Insoluble^19
Reported Salt Solubility [3]: 0.023 mg/mL^18
concentration (FB equivalents) at which the freebase dissolved [6, 24]: 33300 µg/mL
dissolution by visual inspection ([6]; 2:1 ratio of API to CapAcid, 100 mg FB in 30 mL water (3 mg/mL)): clear with a small amount of undissolved oil
pH at which precipitation occurred on titration with NaOH ([6]; 2:1 ratio of API to CapAcid, target 3 mg/mL): 2.20

COc1ccc2c(c1)[C@]13CCCC[C@@H]1[C@H](C2)N(C)CC3 [DXM]
solubility as stoichiometric (6.5:1) CapAcid salt compared with known API salts, in words ([6]; 70 mg/mL formulations): dramatic improvement in solubility

COC(=O)[C@@H](N)Cc1ccc(O)c(O)c1 [Melevodopa]
pH of the solution prior to titration [1, 9]: 1.22
pH [1, 12]: 6.97
Osmolality [2, 14]: 605.7 mOsmol/kg
Osmolality [2, 16]: 605.7 mOsm/kg

Cc1ncc2n1-c1ccc(Cl)cc1C(c1ccccc1F)=NC2 [Midazolam]
final pH of the solution ([1]; 3:1 ratio, after 0.5 M HCl redissolved the solid): 2.86
pH when solids began to crash out ([1]; 3:1 ratio, after 360 μL total 2M NaOH): 2.92
highest achievable pH without precipitation of freebase solids ([6]; 3:1 ratio of API to CapAcid (relative to the cyclodextrin), 300.8 mg FB in 10 mL water): 3.15
dissolution by visual inspection ([6]; 3:1 ratio of API to CapAcid (relative to the cyclodextrin), 10 mL water): transparent colorless solution
dissolution by visual inspection ([6]; CapAcid 1 molar equivalent relative to H^+, 300.8 mg FB in 10 mL water, 30 minutes): cloudy suggesting incomplete dissolution

N=C(N)c1ccc2cc(OC(=O)c3ccc(N=C(N)N)cc3)ccc2c1 [Nafamostat]
pH of the solution before titration ([1]; 1:1 ratio of API to CapAcid): 0.49
final pH ([1]; 1:1 ratio of API to CapAcid): 6.99
pH of the solution before titration ([1]; 2:1 ratio of API to CapAcid): 1.55
final pH ([1]; 2:1 ratio of API to CapAcid): 6.96
concentration (FB equivalents) at which the freebase dissolved [6, 24]: 33300 µg/mL
concentration (FB equivalents) at which the freebase dissolved [6, 25]: 3000 µg/mL
concentration at which the freebase dissolved ([6]; API FB with Captisol® Sodium 1 molar equivalent, water, stirring 30 minutes): ~16700 µg/mL
Osmolality [7]: 354.3 mOsm/Kg

C=CCN1CC[C@]23c4c5ccc(O)c4O[C@H]2C(=O)CC[C@@]3(O)[C@H]1C5 [Naloxone]
pH [1, 11]: 4.39
pH [1, 12]: 6.01
pH [1, 13]: 5.98
Osmolality [2, 11]: 279 mOsm/kg
Osmolality [2, 23]: 279 mOsmol/kg
Osmolality [2, 15]: 531.7 mOsmol/kg
Osmolality [2, 16]: 139.7 mOsm/kg
Osmolality [2, 17]: 531.7 mOsm/kg
Reported Freebase Solubility [3]: 1415 µg/mL
Reported Salt Solubility [3]: 50 mg/mL^13
pH past which the freebase crashed out ([6]; 70 mg/mL FB, 1.1 equivalents CapAcid): > 6.00

CCC(CC)COC(=O)[C@H](C)N[P@](=O)(OC[C@H]1O[C@@](C#N)(c2ccc3c(N)ncnn23)[C@H](O)[C@@H]1O)Oc1ccccc1 [Remdesivir]
Reported Freebase Solubility [3]: Insoluble^15

CN1CCC[C@@H]1Cc1c[nH]c2ccc(CCS(=O)(=O)c3ccccc3)cc12 [eletriptan]
solubility compared to higher API:captisol ratio ([8]; 2:1 ratio to captisol compared to 4:1 ratio): superior solubility
appearance at higher API:captisol ratio ([8]; 4:1 ratio to captisol): precipitation
pH of the solution before titration ([1]; 1:1 ratio of API to CapAcid): 0.48
final pH ([1]; 1:1 ratio of API to CapAcid): 6.06
pH of the solution before titration ([1]; 2:1 ratio of API to CapAcid): 1.42
final pH ([1]; 2:1 ratio of API to CapAcid): 6.08
pH of the solution before titration ([1]; 4:1 ratio of API to CapAcid): 2.34
final pH ([1]; 4:1 ratio of API to CapAcid): 6.01
pH of the ethanol solution prior to titration [5]: 8.02
dissolution of 70 mg of the ethanol-prepared API-CapAcid solid in 1 mL water [5]: became cloudy but a large amount of oil remained at the bottom
Reported Salt Solubility [3]: <1 mg/mL^16
concentration (FB equivalents) at which the freebase dissolved [6, 24]: 33300 µg/mL
concentration (FB equivalents) at which the freebase dissolved [6, 25]: ~8300 µg/mL
dissolution by visual inspection ([6]; 4:1 ratio of API to CapAcid, 100 mg FB in 30 mL water, stirring for 2 days): most of the FB dissolved and the solution was cloudy
